What was measured:
[1] = Effect on insulin release in rat pancreatic cells at 10 umol/L after 6 hrs by radioimmunoassay; format: functional
[2] = Effect on insulin release in rat pancreatic cells at 1 umol/L after 6 hrs by radioimmunoassay; format: functional
[3] = Effect on insulin release in rat pancreatic cells at 100 umol/L after 6 hrs by radioimmunoassay; format: functional
Adipocyte [4] = test: Effect on 2-deoxy-D-[1-3H]glucose transport in Sprague-Dawley rat adipocytes at 1 uM in absence of insulin by liquid scintillation counting; format: functional
Adipocyte [5] = test: Effect on 2-deoxy-D-[1-3H]glucose transport in Sprague-Dawley rat adipocytes at 100 uM in absence of insulin by liquid scintillation counting; format: functional
Adipocyte [6] = test: Effect on 2-deoxy-D-[1-3H]glucose transport in Sprague-Dawley rat adipocytes at 10 uM in presence of insulin by liquid scintillation counting; format: functional
Adipocyte [7] = test: Effect on 2-deoxy-D-[1-3H]glucose transport in Sprague-Dawley rat adipocytes at 100 uM in presence of insulin by liquid scintillation counting; format: functional
Adipocyte [8] = test: Effect on 2-deoxy-D-[1-3H]glucose transport in Sprague-Dawley rat adipocytes at 1 uM in presence of insulin by liquid scintillation counting; format: functional
Adipocyte [9] = test: Effect on 2-deoxy-D-[1-3H]glucose transport in Sprague-Dawley rat adipocytes at 10 uM in absence of insulin by liquid scintillation counting; format: functional
[10] = Antiplatelet activity in human platelets assessed as inhibition of arachidonic acid-induced platelet aggregation; format: functional, cell-based
[11] = Antiplatelet activity in human platelets assessed as inhibition of ADP-induced platelet aggregation; format: functional, cell-based
Mus musculus = test: Protection against collagen-epinephrine-induced mortality in Chinese Kunming cerebral thrombosis mouse model assessed as survival rate at 60 mg/kg, po administered once daily for 7 days measured on day 7 within 15 mins of collagen-epinephrine challenge; format: functional
Adipocyte [12] = test: Increase in glucose absorption in Sprague-Dawley rat adipocytes at 100 uM by liquid scintillation counting relative to basal level; format: functional
[13] = Increase in insulin release in rat pancreatic cells at 100 umol/L after 6 hrs by radioimmunoassay relative to basal level; format: functional

Row | Compound | Activity [1] [uIU/ml] | Activity [2] [uIU/ml] | Activity [3] [uIU/ml] | Activity (Adipocyte [4]) [disintegrations/minute] | Activity (Adipocyte [5]) [disintegrations/minute] | Activity (Adipocyte [6]) [disintegrations/minute] | Activity (Adipocyte [7]) [disintegrations/minute] | Activity (Adipocyte [8]) [disintegrations/minute] | Activity (Adipocyte [9]) [disintegrations/minute] | IC50 [10] [µM] | IC50 [11] [µM] | survival at 60 mg/kg (Mus musculus) [%] | fold change (FC) (Adipocyte [12]) | fold change (FC) [13]
1 | COc1ccc(NC(=S)NS(=O)(=O)c2ccc(CCNS(=O)(=O)c3ccc(Cl)cc3)cc2)cc1 | 24.36 | 24.05 | 26.09 | – | – | – | – | – | – | – | – | – | – | –
2 | COc1ccc(NC(=S)NS(=O)(=O)c2ccc(CCNS(=O)(=O)c3ccccc3)cc2)cc1 | 24.98 | 22.86 | 23.42 | 4179.5 | 4366.76 | 7555.71 | 6987.19 | 5708.43 | 4118.78 | – | – | – | – | –
3 | CC(=O)Oc1ccccc1C(=O)O [ASPIRIN] | – | – | – | – | – | – | – | – | – | 0.35 | 9.34 | 63.6 | – | –
4 | O=C(NC1CCCCC1)NS(=O)(=O)c1ccc(CCNS(=O)(=O)c2ccc(Cl)cc2)cc1 | 41.18 | 33.95 | 55.03 | 4576.35 | 6632.7 | 5933.89 | 6521.12 | 5217.31 | 5878.83 | – | – | – | – | –
5 | Cc1ccc(NC(=S)NS(=O)(=O)c2ccc(CCNS(=O)(=O)c3ccccc3)cc2)cc1 | 27.71 | 27.99 | 24.97 | 4377.95 | 4663.52 | 5644.89 | 5761.23 | 5319.5 | 4385.12 | – | – | – | – | –
6 | CC(=O)Nc1ccc(S(=O)(=O)NCCc2ccc(S(=O)(=O)NC(=O)NC3CCC(C)CC3)cc2)cc1C (centres undefined) | 27.67 | 23.57 | 37.32 | 4302.19 | 5207.81 | 6516.9 | 7244.87 | 6123.02 | 4573.8 | – | – | – | – | –
7 | CC(=O)Nc1ccc(S(=O)(=O)NCCc2ccc(S(=O)(=O)NC(=O)NC3CCC(C)CC3)cc2)cc1 (centres undefined) | 36.67 | 30.18 | 28.52 | 4215.36 | 6736.82 | 6200.35 | 6812.33 | 5087.78 | 5616.15 | – | – | – | – | –
8 | O=C(NC1CCCCC1)NS(=O)(=O)c1ccc(CCNS(=O)(=O)c2ccc(Br)cc2)cc1 | 45.01 | 32.09 | 65.98 | 4421.72 | 6556.61 | 6002.46 | 7896.14 | 5523.89 | 4861.54 | – | – | – | – | –
9 | Cc1ccc(S(=O)(=O)NCCc2ccc(S(=O)(=O)NC(=S)Nc3ccc(Cl)cc3)cc2)cc1 | 23.01 | 23.89 | 22.25 | 5687.31 | 7061.15 | 5512.62 | 7832.17 | 5115.18 | 6514.04 | – | – | – | 1.59 | –
10 | COc1ccc(NC(=S)NS(=O)(=O)c2ccc(CCNS(=O)(=O)c3ccc(C)cc3)cc2)cc1 | 23.5 | 24.48 | 23.69 | 4425.16 | 4550.21 | 5377.15 | 5573.24 | 5026.34 | 4381.35 | – | – | – | – | –
11 | COc1cc(S(=O)(=O)NCCc2ccc(S(=O)(=O)NC(=O)NC3CCC(C)CC3)cc2)ccc1NC(C)=O (centres undefined) | 24.47 | 24.57 | 24.83 | 5294.78 | 7037.78 | 6341.17 | 7447.72 | 5587.26 | 6547.93 | – | – | – | 1.58 | –
12 | Cc1ccc(S(=O)(=O)NCCc2ccc(S(=O)(=O)NC(=O)NC3CCCCC3)cc2)cc1 | 22.7 | 22.45 | 25.93 | 4281.3 | 4458.36 | 5533.15 | 5297.11 | 5374.21 | 4174.59 | – | – | – | – | –
13 | O=S(=O)(NCCc1ccc(S(=O)(=O)NC(=S)Nc2ccc(Cl)cc2)cc1)c1ccc(Cl)cc1 | 26.37 | 29.46 | 26.07 | 4587.26 | 4763.58 | 5436.58 | 5764.25 | 5179.3 | 4432.15 | – | – | – | – | –
14 | CC1CCC(NC(=O)NS(=O)(=O)c2ccc(CCNS(=O)(=O)c3ccccc3)cc2)CC1 (centres undefined) | 41.29 | 32.15 | 52.23 | – | – | – | – | – | – | – | – | – | – | –
15 | Cc1ccc(NC(=S)NS(=O)(=O)c2ccc(CCNS(=O)(=O)c3ccc(C)cc3)cc2)cc1 | 24.24 | 21.99 | 20.87 | 4428.46 | 4513.06 | 5115.32 | 5624.51 | 5627.67 | 4401.01 | – | – | – | – | –
16 | COc1ccc(NC(=S)NS(=O)(=O)c2ccc(CCNS(=O)(=O)c3ccc(Br)cc3)cc2)cc1 | 24.67 | 22.25 | 26.17 | 4125.36 | 4335.26 | 5234.61 | 5069.25 | 5177.84 | 4026.52 | – | – | – | – | –
17 | CCC1=C(C)CN(C(=O)NCCc2ccc(S(=O)(=O)NC(=O)N[C@H]3CC[C@H](C)CC3)cc2)C1=O [GLIMEPIRIDE] | – | – | 48.14 | 5061.2 | 11068.51 | 8593.72 | 13255.41 | 6365.67 | 7476.6 | – | – | – | 2.5 | 2.03
18 | O=S(=O)(NCCc1ccc(S(=O)(=O)NC(=S)Nc2ccc(Cl)cc2)cc1)c1ccccc1 | 32.1 | 28.94 | 26.06 | – | – | – | – | – | – | – | – | – | – | –
19 | CC1CCC(NC(=O)NS(=O)(=O)c2ccc(CCNS(=O)(=O)c3ccc(Cl)cc3)cc2)CC1 (centres undefined) | 41.29 | 38.15 | 72.23 | 5869.85 | 6960.26 | 6358.77 | 7013.28 | 5972.68 | 6411.7 | – | – | – | 1.57 | 3.05
20 | O=C(NC1CCCCC1)NS(=O)(=O)c1ccc(CCNS(=O)(=O)c2ccccc2)cc1 | 28.27 | 22.86 | 31.29 | – | – | – | – | – | – | – | – | – | – | –

Source: ChEMBL document CHEMBL1153286, “Synthesis and biological evaluation of sulfonylurea and thiourea derivatives substituted with benzenesulfonamide groups as potential hypoglycemic agents” (Bioorg Med Chem Lett, 2009)
